Laboratory results as given in patent publication US9126999B2, “Tetrahydropyrazolopyrimidine compounds” (EISAI R&D MANAGEMENT CO., LTD., priority 2012, dated 2015).
Like-named read-outs stand apart in the source and are kept apart here.

How the values were obtained:
[1] = system: T1, Human TLR7/8; experiment: Human PBMC cell-based assay, RNA-Ig (SL4-Ig) stimulus, cytokine ELISA
T1 construct: IC50; other: Hu PBMC; ligand RNA-Ig; analyte IL-6; analyte TNFα; ligand R848; IC50 against the RNA-Ig TLR7/8 stimulus; cytokine responses to RNA-Ig complexes in vitro; potency against the RNA-Ig TLR7/8 stimulus versus HCQ
Protocol: (§1) Briefly, 25 ml blood was diluted with 15 ml PBS (without Ca^2+, Mg^2+) in a 50 ml conical tube, and 12 ml Histopaque was underlaid using a spinal needle. Tubes were centrifuged for 45 minutes at 1200 rpm (350×g), and PBMC were collected from the buffy coat. Cells were then washed twice in PBS, and red blood cells were lysed by suspension in 5 ml ammonium chloride solution (1× Red Blood Cell Lysis Buffer, eBioscience) for 5 minutes at room temperature.
Antagonist compounds solubilized and serial diluted in 100% DMSO were added in triplicate to cells to yield a final concentration of 0.1% DMSO (v/v). Hydroxychloroquine (Acros Organics) solubilized and serial diluted in PBS was added in triplicate to cells. […] The resulting “RNA-Ig” stimulus was incubated at room temperature for 15-30 minutes before adding to cells. PBMC were incubated with the various TLR agonists for 20 hours at 37° C., 5% CO2. Cell culture supernatants were collected, and levels of various human cytokines were assessed as indicated by standard ELISA procedure according to the manufacturer's recommended protocol (BD Biosciences, Inc., San Diego, Calif.).

[2] = target: T2, Human TLR8 (Homo sapiens, UniProt Q9NR97); experiment: HEK-293 NF-kappaB luciferase reporter assay, CL097 stimulus; assay type: cell-based; conditions: human TLR8 in the HEK-293 assay format; read-out: HEK/TLR8 IC50
T2 construct: host or cells: HEK-293 stably expressing human TLR8, then transfected with pNiFty2(NF-kappaB)-luciferase
T2 sequence (Q9NR97 27-1041): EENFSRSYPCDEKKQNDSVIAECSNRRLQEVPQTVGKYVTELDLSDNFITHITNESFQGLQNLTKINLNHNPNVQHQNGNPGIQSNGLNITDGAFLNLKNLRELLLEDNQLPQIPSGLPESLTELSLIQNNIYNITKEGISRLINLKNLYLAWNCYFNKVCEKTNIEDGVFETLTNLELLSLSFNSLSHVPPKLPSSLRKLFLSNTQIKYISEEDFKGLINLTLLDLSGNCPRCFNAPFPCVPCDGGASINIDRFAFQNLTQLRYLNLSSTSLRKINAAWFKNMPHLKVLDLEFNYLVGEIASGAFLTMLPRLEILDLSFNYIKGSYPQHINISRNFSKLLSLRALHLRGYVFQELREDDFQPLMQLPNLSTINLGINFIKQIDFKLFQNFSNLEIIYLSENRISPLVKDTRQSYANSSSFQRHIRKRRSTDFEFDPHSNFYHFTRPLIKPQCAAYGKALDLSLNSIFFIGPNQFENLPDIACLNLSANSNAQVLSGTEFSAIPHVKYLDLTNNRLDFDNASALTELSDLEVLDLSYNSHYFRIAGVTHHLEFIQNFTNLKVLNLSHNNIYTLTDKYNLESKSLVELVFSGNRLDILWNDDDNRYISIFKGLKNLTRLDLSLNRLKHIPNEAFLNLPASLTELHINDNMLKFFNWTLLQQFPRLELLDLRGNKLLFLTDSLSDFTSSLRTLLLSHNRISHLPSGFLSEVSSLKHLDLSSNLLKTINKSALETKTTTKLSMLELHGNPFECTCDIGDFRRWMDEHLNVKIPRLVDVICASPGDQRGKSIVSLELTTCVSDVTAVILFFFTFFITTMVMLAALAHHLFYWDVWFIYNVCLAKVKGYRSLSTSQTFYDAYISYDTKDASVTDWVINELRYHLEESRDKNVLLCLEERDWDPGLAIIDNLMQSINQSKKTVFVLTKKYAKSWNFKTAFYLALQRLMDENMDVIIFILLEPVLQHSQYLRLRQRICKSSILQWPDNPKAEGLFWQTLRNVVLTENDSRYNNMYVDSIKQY
Description: In vitro pharmacology: HEK-293 cells (ATCC) were engineered to stably express a NF-kappaB transcription factor inducible E-selectin (ELAM-1) luciferase reporter derived from the plasmid pGL3 (Promega) containing base pairs −2241 bp to −254 bp from the promoter of the human E-selectin gene (Accession No. NM_000450). These cells were then subsequently engineered to stably and individually express human TLR4, TLR7 or TLR9 full-length ORF cDNAs. Human TLR4 cDNA (Accession No. NM_138554) was cloned into pcDNA 3.0 expression vector (Invitrogen). TLR4 transfected cells were also engineered to express human MD-2 co-receptor [MD-2 cDNA (Accession No. NM_015364) was cloned into the pEF-BOS vector] and were supplemented with 10 nM soluble CD14 (R&D Systems) in the media to optimize LPS responsiveness. Human TLR9 cDNA (Accession No. NM_017442) was cloned into the pBluescript II KS vector (Agilent). Human TLR7 cDNA (Accession No. NM_016562) was obtained from OriGene. HEK-293 cells stably expressing human TLR8 (Accession No. NM_138636) or mouse TLR7 (Accession No. NM_133211) were purchased from InvivoGen and were then stably transfected with pNiFty2(NF-kappaB)-luciferase reporter plasmid (InvivoGen). Each cell type was plated in Dulbecco's modified Eagle's medium (DMEM) containing 10% fetal bovine serum (FBS) at a density of 2.22×10^5 cells/ml into a 384-well plate and incubated for 2 days at 37° C., 5% CO2. Varying concentrations of antagonist compounds were then added. Cells were then incubated for another 30 minutes before adding the appropriate TLR agonist as follows (final concentrations indicated): lipopolysaccharide (LPS; Sigma) at 10 ng/ml for TLR4, CL097 (InvivoGen) at 3 ug/ml for human TLR7 and TLR8 and mouse TLR7, and CpG-2006-2A [sequence: […] (SEQ ID NO: 1) with phosphorothioate backbone, synthesized by Sigma-Aldrich] at 0.6 uM for TLR9.

[3] = target: T3, Human TLR9 (Homo sapiens, UniProt Q9NR96); experiment: Human PBMC cell-based assay, CpG-ODN stimulus, IL-6 ELISA; parameters: endogenous in cells; host or cells: primary human PBMC from healthy donor blood; conditions: Hu PBMC; ligand CpG-ODN; analyte IL-6
T3 sequence (Q9NR96 26-1032): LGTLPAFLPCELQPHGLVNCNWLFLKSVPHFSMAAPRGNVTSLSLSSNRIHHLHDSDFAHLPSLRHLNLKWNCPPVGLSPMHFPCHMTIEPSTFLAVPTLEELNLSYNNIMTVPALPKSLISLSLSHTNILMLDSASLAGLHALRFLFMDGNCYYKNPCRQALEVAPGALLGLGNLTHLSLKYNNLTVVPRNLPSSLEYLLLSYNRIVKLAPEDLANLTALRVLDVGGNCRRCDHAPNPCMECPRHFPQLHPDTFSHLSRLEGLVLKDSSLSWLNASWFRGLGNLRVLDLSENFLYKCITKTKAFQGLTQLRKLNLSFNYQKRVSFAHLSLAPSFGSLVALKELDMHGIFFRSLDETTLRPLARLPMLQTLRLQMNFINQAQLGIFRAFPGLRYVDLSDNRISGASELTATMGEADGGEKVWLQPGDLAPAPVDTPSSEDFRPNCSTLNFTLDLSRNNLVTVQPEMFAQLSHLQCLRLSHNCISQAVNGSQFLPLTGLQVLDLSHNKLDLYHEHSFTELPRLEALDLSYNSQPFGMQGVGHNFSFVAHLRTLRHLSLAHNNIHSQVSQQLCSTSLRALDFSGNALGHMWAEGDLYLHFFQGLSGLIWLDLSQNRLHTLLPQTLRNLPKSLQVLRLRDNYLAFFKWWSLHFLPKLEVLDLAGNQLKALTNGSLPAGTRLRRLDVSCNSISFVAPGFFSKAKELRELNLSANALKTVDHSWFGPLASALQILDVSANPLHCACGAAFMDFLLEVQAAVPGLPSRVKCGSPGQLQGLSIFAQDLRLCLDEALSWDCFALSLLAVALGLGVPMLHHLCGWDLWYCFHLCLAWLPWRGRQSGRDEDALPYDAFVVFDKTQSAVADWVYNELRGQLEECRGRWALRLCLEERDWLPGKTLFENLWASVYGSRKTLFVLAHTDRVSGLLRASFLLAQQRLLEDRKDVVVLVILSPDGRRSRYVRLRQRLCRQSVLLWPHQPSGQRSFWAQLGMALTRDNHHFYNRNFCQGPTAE
Protocol: as §1, with “Human peripheral blood mononuclear cells (PBMC) were isolated from freshly-drawn heparinized (10 USP units/ml, Hospira, Lakeforest, Ill.) healthy donor whole blood by density gradient (Histopaque® 1077, Sigma, Inc., St. Louis, Mo.). Briefly,” for “Briefly,”, “temperature. […]” for “temperature.”
(§2) Antagonist compounds solubilized and serial diluted in 100% DMSO were added in triplicate to cells to yield a final concentration of 0.1% DMSO (v/v). […] Cell culture supernatants were collected, and levels of various human cytokines were assessed as indicated by standard ELISA procedure according to the manufacturer's recommended protocol (BD Biosciences, Inc., San Diego, Calif.).

[4] = target: Human TLR4 (Homo sapiens, UniProt O00206); experiment: Human PBMC cell-based assay, LPS stimulus, IL-6 ELISA; parameters: endogenous in cells; host or cells: primary human PBMC from healthy donor blood; conditions: Hu PBMC; ligand LPS; analyte IL-6
Chain of Human TLR4 (O00206 24-839): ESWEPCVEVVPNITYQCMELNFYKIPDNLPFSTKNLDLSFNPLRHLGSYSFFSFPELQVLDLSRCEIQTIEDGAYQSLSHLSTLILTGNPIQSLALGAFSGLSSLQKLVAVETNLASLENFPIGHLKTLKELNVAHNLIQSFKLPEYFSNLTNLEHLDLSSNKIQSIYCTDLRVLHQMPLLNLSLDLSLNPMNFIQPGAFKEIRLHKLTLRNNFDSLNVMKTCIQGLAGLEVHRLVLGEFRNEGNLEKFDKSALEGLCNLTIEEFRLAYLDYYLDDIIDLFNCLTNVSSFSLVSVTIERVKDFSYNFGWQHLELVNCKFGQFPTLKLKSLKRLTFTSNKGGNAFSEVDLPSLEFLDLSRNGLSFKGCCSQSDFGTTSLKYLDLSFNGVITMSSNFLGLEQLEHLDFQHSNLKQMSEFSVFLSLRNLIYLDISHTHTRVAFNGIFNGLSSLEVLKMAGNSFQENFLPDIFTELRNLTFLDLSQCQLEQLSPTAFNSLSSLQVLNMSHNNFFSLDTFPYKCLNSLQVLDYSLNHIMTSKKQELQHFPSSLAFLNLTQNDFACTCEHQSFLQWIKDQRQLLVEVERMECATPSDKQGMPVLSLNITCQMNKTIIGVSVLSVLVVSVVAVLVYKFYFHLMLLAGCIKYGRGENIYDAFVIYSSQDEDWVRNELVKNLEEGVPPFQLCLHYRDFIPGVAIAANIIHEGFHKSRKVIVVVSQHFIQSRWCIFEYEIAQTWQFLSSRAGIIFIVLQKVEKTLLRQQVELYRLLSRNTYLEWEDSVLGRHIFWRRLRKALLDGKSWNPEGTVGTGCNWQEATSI
Chain of Human TLR4 (Q9Y6Y9 19-160 partner): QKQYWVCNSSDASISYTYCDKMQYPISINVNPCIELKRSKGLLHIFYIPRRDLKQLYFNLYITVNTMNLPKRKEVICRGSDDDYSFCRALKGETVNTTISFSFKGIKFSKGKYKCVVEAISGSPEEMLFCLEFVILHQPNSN
Protocol: as §1, with “Human peripheral blood mononuclear cells (PBMC) were isolated from freshly-drawn heparinized (10 USP units/ml, Hospira, Lakeforest, Ill.) healthy donor whole blood by density gradient (Histopaque® 1077, Sigma, Inc., St. Louis, Mo.). Briefly,” for “Briefly,”, “temperature. […]” for “temperature.”
as §2

[5] = Human PBMC IL-6 Inhibition (SL4-Ig Ligand), read-out: Human PBMC IC50

Compound | IC50 [1, 5] [nM] | IC50 [2] [nM] | IC50 [3] [nM] | IC50 [4] [nM] | IC50 ([1]; Hu PBMC, ligand RNA-Ig, analyte IL-6, read-out: IC50) [nM] | IC50 ([1]; read-out: IC50 against the RNA-Ig TLR7/8 stimulus) [nM]
COc1ccc([C@H]2C[C@@H](C(F)(F)F)n3nc(-c4ccc(C(=O)N5CCNCC5)cc4)cc3N2)cc1OC [ER-892924] | 160 | 220 |  |  |  | 
CCN(CCO)CCCC(C)Nc1ccnc2cc(Cl)ccc12 (stereo not drawn) [HCQ, Hydroxychloroquine, reference compound] |  |  | 150 to 300 | > 10000 | 1000 to 2000 | ~1500
COc1cc(-c2cc3n(n2)C(C(F)(F)F)CC(c2ccc(OC)c(OC)c2)N3)ccn1 (racemic) [ER-886434] | 414 | 300 |  |  |  | 
Cc1nn(C)cc1C1CC(C(F)(F)F)n2nc(-c3ccc4c(cnn4C)c3C)cc2N1 (stereo not drawn) [ER-892900] | 744 | 330 |  |  |  | 
Cc1nn(C)cc1[C@H]1C[C@@H](C(F)(F)F)n2nc(-c3ccc4c(cnn4C)c3C)cc2N1 [ER-893987] | 2110 | 220 |  |  |  | 
